Assay results: patent US10214492B2, “Heterocyclic inhibitors of MCT4” (Vettore, LLC, priority 2016, dated 2019)

What was measured:
MCT1 = MCT1 (Homo sapiens (Human), UniProt P53985); assay: Assay 4: MCT1-mediated lactate transport in BT20 breast cancer cells; format: cell-based; conditions: Table 27
Experimental: (§1) 10 μL of a 30 mM DMSO stock of BCECF-AM ester (Life Technologies) is added and the cells are incubated at 37° C. for 5 min. The cells are pelleted (300 g, 5 min), washed once with 1 mL Tyrode's Solution, pH 7.4, re-pelleted (300 g, 5 min), and resuspended in 1 mL Tyrode's Solution, pH 7.4.
Assay 4: MCT1-Mediated Lactate Transport in BT20 Breast Cancer Cells.
Preparation of BCECF loaded cells are as described for Assay 1. Lactate transport assay is as described for Assay 1, except 10 mM L-lactate (rather than 50 mM) is added.

MCT4 = MCT4 (Homo sapiens (Human), UniProt O15427); assay: Assay 3: MCT4-mediated lactate transport in MDA-MB-231 breast cancer cells; format: cell-based; conditions: MDA-MB-231 cells; lactate transport
Chain of MCT4 (O15427 whole entry, looked up): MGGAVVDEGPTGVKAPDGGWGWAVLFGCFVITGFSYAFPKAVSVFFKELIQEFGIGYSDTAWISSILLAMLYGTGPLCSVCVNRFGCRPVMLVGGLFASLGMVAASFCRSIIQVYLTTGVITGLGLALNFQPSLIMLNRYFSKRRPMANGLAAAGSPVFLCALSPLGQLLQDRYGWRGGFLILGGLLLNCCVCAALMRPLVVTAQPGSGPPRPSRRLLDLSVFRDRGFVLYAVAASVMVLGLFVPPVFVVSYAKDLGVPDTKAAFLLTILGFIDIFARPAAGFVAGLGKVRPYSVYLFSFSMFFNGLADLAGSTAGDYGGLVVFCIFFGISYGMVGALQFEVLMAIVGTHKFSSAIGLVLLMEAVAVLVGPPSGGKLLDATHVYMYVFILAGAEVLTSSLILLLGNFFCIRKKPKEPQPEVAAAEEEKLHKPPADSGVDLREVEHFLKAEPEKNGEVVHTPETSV
Chain of MCT4 (P35613 whole entry partner, looked up): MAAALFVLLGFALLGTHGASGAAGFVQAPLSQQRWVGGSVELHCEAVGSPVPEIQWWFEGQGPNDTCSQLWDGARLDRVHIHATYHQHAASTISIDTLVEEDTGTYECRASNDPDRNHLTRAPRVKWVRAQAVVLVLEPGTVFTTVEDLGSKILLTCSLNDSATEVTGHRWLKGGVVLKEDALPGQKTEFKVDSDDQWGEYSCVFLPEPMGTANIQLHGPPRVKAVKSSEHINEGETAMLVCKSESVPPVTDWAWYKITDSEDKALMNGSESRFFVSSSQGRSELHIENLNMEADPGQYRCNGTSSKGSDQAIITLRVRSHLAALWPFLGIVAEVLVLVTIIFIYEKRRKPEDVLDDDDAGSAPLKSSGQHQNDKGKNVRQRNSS
Experimental: as §1
MCT4 activity may be assessed by monitoring the intracellular pH change that accompanies lactate/proton symport, using the pH-sensitive fluorescent dye 2′,7′-bis-(carboxyethyl)-5(6)-carboxyfluorescein (BCECF), in a manner similar to that previously reported for MCT1 and MCT4. The following is an exemplary procedure for assaying MCT4 activity of the compounds of Formula (I).

Chain of MCT1 (P53985 whole entry): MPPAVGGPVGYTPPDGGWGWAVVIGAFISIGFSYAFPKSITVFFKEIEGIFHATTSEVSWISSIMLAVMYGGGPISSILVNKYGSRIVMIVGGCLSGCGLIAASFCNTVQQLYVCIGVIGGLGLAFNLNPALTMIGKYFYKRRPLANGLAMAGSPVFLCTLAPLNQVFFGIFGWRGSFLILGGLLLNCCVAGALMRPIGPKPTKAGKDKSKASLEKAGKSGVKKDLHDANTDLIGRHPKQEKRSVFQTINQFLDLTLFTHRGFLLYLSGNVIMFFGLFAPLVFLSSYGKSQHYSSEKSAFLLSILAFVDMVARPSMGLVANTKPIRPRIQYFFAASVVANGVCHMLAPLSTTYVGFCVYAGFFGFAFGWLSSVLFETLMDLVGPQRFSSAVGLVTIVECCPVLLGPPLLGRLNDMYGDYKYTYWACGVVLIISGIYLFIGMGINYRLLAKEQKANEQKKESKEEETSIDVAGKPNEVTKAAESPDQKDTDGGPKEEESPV
Chain of MCT1 (P35613 140-385 partner): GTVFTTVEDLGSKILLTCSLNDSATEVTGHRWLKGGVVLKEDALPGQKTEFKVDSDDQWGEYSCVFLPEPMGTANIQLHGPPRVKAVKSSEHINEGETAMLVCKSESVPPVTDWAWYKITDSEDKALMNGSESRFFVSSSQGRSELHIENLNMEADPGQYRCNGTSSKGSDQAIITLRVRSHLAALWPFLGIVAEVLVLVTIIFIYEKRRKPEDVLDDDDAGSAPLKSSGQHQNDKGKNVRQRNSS

IC50 (MCT1)	IC50 (MCT4)	Compound
> 100000 nM	180 nM	CC(C)(OCc1cc(-c2cccc(OC3COC3)c2)n(-c2ccccc2Cl)n1)C(=O)O [Example 176, 2-([1-(2-Chlorophenyl)-5-[3-(oxetan-3-yl-oxy)phenyl]-1Hpyrazol-3-yl]methoxy)-2-methylpropanoic acid]
25000 nM	20 nM	CC(C)(OCc1cc(-c2cccc(OC3CC3)c2)n(-c2ccccc2F)n1)C(=O)O [Example 181, 2-([5-(3-cyclopropoxyphenyl)-1-(2-fluorophenyl)-1H-pyrazol-3-yl]methoxy)-2-methylpropanoate]
12000 nM	5.9 nM	CC(C)(OCc1cc(-c2cccc(OC3CC3)c2)n(-c2ccccc2Br)n1)C(=O)O [Example 182, 2-([1-(2-Bromophenyl)-5-(3-cyclopropoxy-phenyl)-1H-pyrazol-3-yl]methoxy)-2-methylpropanoic acid]
> 33000 nM	22 nM	CC(C)(OCc1cc(-c2cccc(OC3CC3)c2)n(-c2ccc(Cl)cc2Cl)n1)C(=O)O [Example 184, 2-([5-(3-Cyclopropoxyphenyl)-1-(2,4-dichlorophenyl)-1H-pyrazol-3-yl]methoxy)-2-methylpropanoic acid]
17000 nM	9.3 nM	CC(C)(OCc1cc(-c2cccc(OC3CC3)c2)n(-c2cc(Cl)ccc2Cl)n1)C(=O)O [Example 185, 2-([5-(3-Cyclopropoxyphenyl)-1-(2,5-dichlorophenyl)-1H-pyrazol-3-yl]methoxy)-2-methylpropanoic acid]
90000 nM	21.5 nM	CC(C)(OCc1cc(-c2cccc(OC3CC3)c2)n(-c2ccccc2OC(F)F)n1)C(=O)O [Example 186, 2-([5-(3-Cyclopropoxyphenyl)-1-[2-(difluoromethoxy)phenyl]-1H-pyrazol-3-yl]-methoxy)-2-methylpropanoic acid]
63000 nM	43 nM	CCOc1ccccc1-n1nc(COC(C)(C)C(=O)O)cc1-c1cccc(OC2CC2)c1 [Example 187, 2-([5-(3-cyclopropoxyphenyl)-1-(2-ethoxy-phenyl)-1H-pyrazol-3-yl]methoxy)-2-methylpropanoic acid]
22000 nM	18 nM	CC(C)c1ccccc1-n1nc(COC(C)(C)C(=O)O)cc1-c1cccc(OC2CC2)c1 [Example 189, 2-([5-(3-cyclopropoxyphenyl)-1-[2-(propan-2-yl)phenyl]-1H-pyrazol-3-yl]methoxy)-2-methylpropanoic acid]
31000 nM	7.8 nM	CC(C)(OCc1cc(-c2cccc(OC3CC3)c2)n(-c2ccccc2C(F)(F)F)n1)C(=O)O [Example 190, 2-([5-(3-Cyclopropoxyphenyl)-1-[2-(trifluoromethyl)phenyl]-1H-pyrazol-3-yl]-methoxy)-2-methylpropanoic acid]
38000 nM	18 nM	CCn1ncc2cccc(-n3nc(COC(C)(C)C(=O)O)cc3-c3cccc(OC4CC4)c3)c21 [Example 193, 2-([5-(3-Cyclopropoxyphenyl)-1-(1-ethyl-1H-indazol-7-yl)-1H-pyrazol-3-yl]-methoxy)-2-methylpropanoic acid]
> 100000 nM	3500 nM	Cn1cnc2cccc(-n3nc(COC(C)(C)C(=O)O)cc3-c3cccc(OC4CC4)c3)c21 [Example 194, 2-([5-(3-Cyclopropoxyphenyl)-1-(1-methyl-1H-1,3-benzodiazol-7-yl)-1H-pyrazol-3-yl]-methoxy)-2-methylpropanoic acid]
13000 nM	5.3 nM	CC(C)(OCc1cc(-c2cc3ccccc3s2)n(Cc2ccccc2Cl)n1)C(=O)O [Example 195]
34000 nM	9.6 nM	CCOc1cccc(-c2cc(COC(C)(C)C(=O)O)nn2Cc2ccccc2OCC)c1 [Example 199, 2-([5-(3-Ethoxyphenyl)-1-[(2-ethoxy-phenyl)methyl]-1H-pyrazol-3-yl]methoxy)-2-methylpropanoic acid]
17000 nM	1.9 nM	CCOc1cc(OC)cc(-c2cc(COC(C)(C)C(=O)O)nn2Cc2ccccc2OCC)c1 [Example 200, 2-([5-(3-Ethoxy-5-methoxyphenyl)-1-[(2-ethoxyphenyl)methyl]-1H-pyrazol-3-yl]-methoxy)-2-methylpropanoic acid]
93000 nM	185 nM	CC(C)(OCc1cc(-c2ccc3c(c2)OCCO3)n(Cc2ccccc2Cl)n1)C(=O)O [Example 203, 2-([1-[(2-Chlorophenyl)methyl]-5-(2,3-dihydro-1,4-benzodioxin-6-yl)-1H-pyrazol-3-yl]methoxy)-2-methylpropanoic acid]
> 100000 nM	40 nM	CC(C)(OCc1cc(-c2ccc3c(c2)OCO3)n(Cc2ccccc2Cl)n1)C(=O)O [Example 204, [[5-(2H-1,3-Benzodioxol-5-yl)-1-[(2-chloro-phenyl)methyl]-1H-pyrazol-3-yl]methoxy)-2-methylpropanoic acid]
> 100000 nM	890 nM	Cn1cc(-c2cc(COC(C)(C)C(=O)O)nn2Cc2ccccc2Cl)cn1 [Example 205, 2-([1-[(2-Chlorophenyl)methyl]-5-(1-methyl-1H-pyrazol-4-yl)-1H-pyrazol-3-yl]-methoxy)-2-methylpropanoic acid]
3200 nM	15 nM	CCOc1ccccc1Cn1nc(COC(C)(C)C(=O)O)cc1-c1ccc2cnn(C)c2c1 [Example 207, 2-([1-[(2-Ethoxyphenyl)methyl]-5-(1-methyl-1H-indazol-6-yl)-lH-pyrazol-3-yl]-methoxy)-2-methylpropanoic acid]
17000 nM	7.5 nM	CCOc1cc(OCC)cc(-c2cc(COC(C)(C)C(=O)O)nn2Cc2ccccc2OCC)c1 [Example 208, 2-([5-(3,5-Diethoxyphenyl)-1-[(2-ethoxy-phenyl)methyl]-1H-pyrazol-3-yl]methoxy)-2-methylpropanoic acid]
95000 nM	31 nM	Cn1ncc2cc(-c3cc(COC(C)(C)C(=O)O)nn3Cc3ccccc3Cl)ccc21 [Example 209, 2-([1-[(2-Chlorophenyl)methyl]-5-(1-methyl-1H-indazol-5-yl)-1H-pyrazol-3-yl]-methoxy)-2-methyl propanoic acid]
> 100000 nM	195 nM	COc1cc(OC)cc(-c2cc(COC(C)(C)C(=O)O)nn2CCc2ccccc2)c1 [Example 212, 2-([5-(3,5-Dimethoxyphenyl)-1-(2-phenyl-ethyl)-1H-pyrazol-3-yl]methoxy)-2-methylpropanoic acid]
12000 nM	12 nM	CCOc1cc(OCC)cc(-c2cc(COC(C)(C)C(=O)O)nn2Cc2ccccc2Cl)c1 [Example 213, 2-([1-[(2-Chlorophenyl)methyl]-5-(3,5-diethoxyphenyl)-1H-pyrazol-3-yl]methoxy)-2-methylpropanoic acid]
94000 nM	6 nM	CN(C)c1ccccc1Cn1nc(COC(C)(C)C(=O)O)cc1-c1cccc(OC2CC2)c1 [Example 214, 2-([5-(3-Cyclopropoxyphenyl)-1-[[2-(dimethylamino)phenyl)methyl]-1H-pyrazol-3-yl]methoxy)-2-methylpropanoic acid]
> 100000 nM	360 nM	COc1cccc(-c2cc(COC(C)(C)C(=O)O)nn2-c2ccccc2OC(C)C)c1 [Example 215, 2-([5-(3-Methoxyphenyl)-1-[2-(propan-2-yloxy)phenyl]-l//-pyrazol-3-yl]mcthoxy)-2-methylpropanoic acid]
18000 nM	8.7 nM	CC[C@@](C)(OCc1cc(-c2cccc(OC3CC3)c2)n(-c2cccc3cnn(C)c23)n1)C(=O)O [Example 217, (2R)-2-([5-(3-cyclopropoxyphenyl)-1-(1-methyl-1H-indazol-7-yl)-1H-pyrazol-3-yl]methoxy)-2-methylbutanoic acid]
22000 nM	7.5 nM	CC[C@](C)(OCc1cc(-c2cccc(OC)c2)n(Cc2ccccc2Cl)n1)C(=O)O [Example 218, (2S)-2-([1-[(2-chlorophenyl)methyl]-5-(3-methoxyphenyl)-1H-pyrazol-3-yl]methoxy)-2-methylbutanoic acid]
14000 nM	4 nM	CC[C@@](C)(OCc1cc(-c2cccc(OC)c2)n(Cc2ccccc2Cl)n1)C(=O)O [Example 219, (2R)-2-([1-[(2-chlorophenyl)methyl]-5-(3-methoxyphenyl)-1H-pyrazol-3-yl]methoxy)-2-methylbutanoic acid]
21000 nM	0.3 nM	CC[C@@](C)(OCc1cc(-c2cccc(OCC(C)(C)C)c2)n(-c2cccc3cnn(C)c23)n1)C(=O)O [Example 223, (2R)-2-([5-[3-(2,2-Dimethyl-propoxy)phenyl]-1-(1-methyl-1H-indazol-7-yl)-1H-pyrazol-3-yl]methoxy)-2-methyl-butanoic acid]
37000 nM	690 nM	CC(C)Oc1ncc(-c2cc(COC(C)(C)C(=O)O)nn2Cc2ccccc2Cl)o1 [Example 227, 2-([1-[(2-Chlorophenyl)methyl]-5-[2-(propan-2-yloxy)-1,3-oxazol-5-yl]-1H-pyrazol-3-yl)methoxy)-2-methylpropanoic acid]

Compound	IC50 (MCT1)	IC50 (MCT4)
CCOc1ccccc1Cn1nc(COC(C)(C)C(=O)O)cc1-c1cccc(OC2CCC2)c1 [Example 210, 2-([5-(3-cyclobutoxyphenyl)-1-[(2-ethoxy-phenyl)methyl]-1H-pyrazol-3-yl]methoxy)-2-methylpropanoic acid]	7300 nM	2.4 nM
